The values below come from patent US12521438B2, “SMARCA degraders and uses thereof” (Kymera Therapeutics, Inc., priority 2019, dated 2026).

For experiment [1], the target named is T1, SMARCA4 (Homo sapiens, UniProt P51532).
T1 construct: endogenous in cells; host or cells: MV4-11
Nature of the experiment: SMARCA4 Western blot MV4-11 degradation. It is filed as cell-based. As to conditions: MV4-11 cells, 24 hours; for Dmax: read-out: SMARCA4 WB MV411 degradation 24h: Average Dmax %; for DC50: read-out: SMARCA4 WB MV411 degradation 24h: Average external-Abs DC50. The method, then:
Example 10. SMARCA2 and SMARCA 4 Western Blot MV4-11 Degradation
Cells were seeded into 6-well plates (MV4-11: 4×10^6 cells/well/1 ml) and 1 ml of 2× compound solution was added into the well to make the final concentration and the plates were mixed well and incubated for 24 hours (No cytotoxicity was observed). The cell were collected with media and spun at 3000 rpm for 5 minutes. The supernatant was aspirated and the well and the cells were washed with cold PBS once and combined for centrifugation again; the supernatant aspirated again. 200 ul pre-chilled RIPAlysis buffer (Boston BioProducts BP-115D) with protease/phosphatase inhibitor (Roche 05892791001/Roche 04906837001) was directly added into the tube to lyze the cells for 20 minutes on ice. The cell lysate were collected into EP tubes and spun at 13000 rpm for 20 minutes and 72 ul supernatant was transferred to a fresh EP tube containing 18 ul of 5× loading buffer (Beyotime Bio P0015) to make the loading samples. The samples were heated to 100° C. for 10 minutes and cooled to RT and microcentrifuged. 20 ul of samples were loaded onto SDS-PAGE gel (Novex, WG1402BOX) and the gel was run at 80 V for 20 minutes and 120 V for 1.5 hours. The samples were electrotransfer to a NC membrane using wet-transfer method with 250 mA for 2.5 hours. The membrane was blocked with LICOR blocking buffer (LI-COR, 927-50000) for 1 hour. The membrane was washed three times with TBST (CST #9997S), 5 minutes each. Incubation was performed with primary antibody prepared in blocking buffer with 0.1% Tween-20 (Solarbio, P8220) at 4° C. overnight (Anti-SMARCA2/BRM antibody (ab15597) 1:500; Anti-BRG1 antibody [EPR3912] (ab108318) 1:1000; Rabbit anti-Baf180 antibody [EPR15860] (Abcam,ab196022) 1:1000; mouse anti-beta-Actin (8H10D10) (CST #3700) 1:10000). The membrane was washed three times with TBST, 5 minutes each. Incubation with secondary antibody was performed for 1 hour at RT (anti-rabbit IgG (Licor, 926-32211) 1:5000; anti-mouse IgG (LI-COR, 926-68070) 1:5000). The membrane was washed three times with 5 minutes each and lastly the LiCOR was read.
On the technique in general: Immunoblotting shows a protein as a band on a membrane.

Experiment [2] addresses SMARCA2 (Homo sapiens, UniProt P51531). Nature of the experiment: MSD SMARCA2 degradation in A549 cell line. The experiment is classed as cell-based. On the set-up: endogenous in cells; host or cells: A549. To be noted: A549 cells, 24 hours; for DC50: read-out: SMARCA2 MSD A549 degradation 24h: Average external-Abs DC50. The method, then: Example 9. MSD SMARCA2 Degradation in A549 Cell Line
Cells were seeded into 96-well plates (A549 cells: 2×10^4 cells/well/100 ul media) abd incubated overnight. The next day, 200 nl compound were added into the intermediate plate with Echo (Labcyte 550) from source plate containing a 3-fold serial dilution from top concentration of 1 mM. The culture medium was changed with 80 ul of fresh medium and 80 ul of 2× compound solution was added into the well to make a final concentration of 1000 nM, 333.3 nM, 111.1 nM, 37.04 nM, 12.35 nM, 4.115 nM, 1.372 nM, 0.457 nM, 0.152 nM and 0 nM (DMSO). The wells were mixed and then incubated for 24 hours. The media was aspirated from the cultures and 60 ul pre-chilled PIPA lysis buffer (Boston BioProducts BP-115D) with protease/phosphatase inhibitor (Roche 05892791001/Roche 04906837001) was added into the well to lyze the cells for 20 minutes at 4° C. The MSD plate (L15XA) was coated with 40 ul cell lysate and incubated at 4° C. overnight. The next day, the plate was washed three times with TBST (CST #9997S), 150 ul/well. The MSD plates was blocked with 150 ul blocking buffer per well and shaked for 1 hr at RT, 600 rpm. The blocking buffer was 3% Blocker A (MSD, R93BA-4) in TBST. The MSD plate was washed three times with 150 ul/well of TBST and 25 ul/well of detection antibody (Rabbit anti-SMARCA2/BRM antibody, 100 μg/ml, ab223735) was added at final concentration of 1 ug/ml diluted in 1% Blocking buffer and shaken for 1 hour at RT, 600 rpm. The MSD plate was washed three times with 150 ul/well of TBST and 25 ul/well of SULFO-TAG anti-rabbit antibody (MSD, R32AB-1) was added at final concentration of 1 ug/ml diluted in 1% Blocking buffer and shaken for 1 hour at RT, 600 rpm. The MSD plate was washed three times with 150 ul/well of TBST and 150 ul/well of 2×MSD reading buffer diluted from 4× (MSD, R92TC-2) with water was added. Lastly, the MSD instrument was read.

Each structure is given as a SMILES string.

Chain of SMARCA2 (P51531 whole entry): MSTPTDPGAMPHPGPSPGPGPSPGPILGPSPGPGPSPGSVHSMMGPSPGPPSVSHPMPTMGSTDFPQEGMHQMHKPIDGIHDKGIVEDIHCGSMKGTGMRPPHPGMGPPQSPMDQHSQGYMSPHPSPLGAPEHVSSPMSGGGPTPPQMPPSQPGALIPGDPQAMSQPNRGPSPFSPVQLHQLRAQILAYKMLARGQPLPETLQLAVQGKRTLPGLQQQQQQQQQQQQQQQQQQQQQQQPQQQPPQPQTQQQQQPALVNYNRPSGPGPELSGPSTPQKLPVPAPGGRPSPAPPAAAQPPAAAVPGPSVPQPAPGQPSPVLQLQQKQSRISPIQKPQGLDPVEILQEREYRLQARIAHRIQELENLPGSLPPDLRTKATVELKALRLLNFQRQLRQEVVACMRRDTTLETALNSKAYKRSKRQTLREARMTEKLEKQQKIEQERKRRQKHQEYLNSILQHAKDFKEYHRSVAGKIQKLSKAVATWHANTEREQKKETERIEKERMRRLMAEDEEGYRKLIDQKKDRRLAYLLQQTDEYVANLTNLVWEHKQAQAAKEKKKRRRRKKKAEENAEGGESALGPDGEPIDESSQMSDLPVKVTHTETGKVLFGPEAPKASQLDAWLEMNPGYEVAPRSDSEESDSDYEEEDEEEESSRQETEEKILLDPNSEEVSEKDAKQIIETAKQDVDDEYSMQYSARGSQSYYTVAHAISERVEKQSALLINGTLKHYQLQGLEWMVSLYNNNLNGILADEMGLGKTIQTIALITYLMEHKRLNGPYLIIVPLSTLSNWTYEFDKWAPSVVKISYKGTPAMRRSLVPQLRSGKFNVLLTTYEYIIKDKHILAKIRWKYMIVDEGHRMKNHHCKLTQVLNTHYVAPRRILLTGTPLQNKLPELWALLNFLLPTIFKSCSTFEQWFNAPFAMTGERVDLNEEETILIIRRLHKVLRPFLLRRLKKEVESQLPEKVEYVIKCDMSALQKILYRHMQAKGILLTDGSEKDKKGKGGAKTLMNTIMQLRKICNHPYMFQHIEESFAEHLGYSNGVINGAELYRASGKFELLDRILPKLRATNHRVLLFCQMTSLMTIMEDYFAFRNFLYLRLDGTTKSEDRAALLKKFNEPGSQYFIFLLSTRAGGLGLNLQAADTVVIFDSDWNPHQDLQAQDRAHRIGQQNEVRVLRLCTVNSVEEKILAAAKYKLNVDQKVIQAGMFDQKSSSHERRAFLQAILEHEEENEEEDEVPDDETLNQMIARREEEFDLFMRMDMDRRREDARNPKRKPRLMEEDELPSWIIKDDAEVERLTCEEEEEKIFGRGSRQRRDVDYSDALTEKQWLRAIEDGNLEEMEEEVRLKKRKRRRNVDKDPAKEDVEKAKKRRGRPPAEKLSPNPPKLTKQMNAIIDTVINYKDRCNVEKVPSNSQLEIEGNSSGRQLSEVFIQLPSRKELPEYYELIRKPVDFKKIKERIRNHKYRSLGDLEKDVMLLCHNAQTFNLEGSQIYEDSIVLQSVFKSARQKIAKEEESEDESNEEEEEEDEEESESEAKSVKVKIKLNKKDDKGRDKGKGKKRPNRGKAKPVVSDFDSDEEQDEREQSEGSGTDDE
T1 sequence (P51532 whole entry): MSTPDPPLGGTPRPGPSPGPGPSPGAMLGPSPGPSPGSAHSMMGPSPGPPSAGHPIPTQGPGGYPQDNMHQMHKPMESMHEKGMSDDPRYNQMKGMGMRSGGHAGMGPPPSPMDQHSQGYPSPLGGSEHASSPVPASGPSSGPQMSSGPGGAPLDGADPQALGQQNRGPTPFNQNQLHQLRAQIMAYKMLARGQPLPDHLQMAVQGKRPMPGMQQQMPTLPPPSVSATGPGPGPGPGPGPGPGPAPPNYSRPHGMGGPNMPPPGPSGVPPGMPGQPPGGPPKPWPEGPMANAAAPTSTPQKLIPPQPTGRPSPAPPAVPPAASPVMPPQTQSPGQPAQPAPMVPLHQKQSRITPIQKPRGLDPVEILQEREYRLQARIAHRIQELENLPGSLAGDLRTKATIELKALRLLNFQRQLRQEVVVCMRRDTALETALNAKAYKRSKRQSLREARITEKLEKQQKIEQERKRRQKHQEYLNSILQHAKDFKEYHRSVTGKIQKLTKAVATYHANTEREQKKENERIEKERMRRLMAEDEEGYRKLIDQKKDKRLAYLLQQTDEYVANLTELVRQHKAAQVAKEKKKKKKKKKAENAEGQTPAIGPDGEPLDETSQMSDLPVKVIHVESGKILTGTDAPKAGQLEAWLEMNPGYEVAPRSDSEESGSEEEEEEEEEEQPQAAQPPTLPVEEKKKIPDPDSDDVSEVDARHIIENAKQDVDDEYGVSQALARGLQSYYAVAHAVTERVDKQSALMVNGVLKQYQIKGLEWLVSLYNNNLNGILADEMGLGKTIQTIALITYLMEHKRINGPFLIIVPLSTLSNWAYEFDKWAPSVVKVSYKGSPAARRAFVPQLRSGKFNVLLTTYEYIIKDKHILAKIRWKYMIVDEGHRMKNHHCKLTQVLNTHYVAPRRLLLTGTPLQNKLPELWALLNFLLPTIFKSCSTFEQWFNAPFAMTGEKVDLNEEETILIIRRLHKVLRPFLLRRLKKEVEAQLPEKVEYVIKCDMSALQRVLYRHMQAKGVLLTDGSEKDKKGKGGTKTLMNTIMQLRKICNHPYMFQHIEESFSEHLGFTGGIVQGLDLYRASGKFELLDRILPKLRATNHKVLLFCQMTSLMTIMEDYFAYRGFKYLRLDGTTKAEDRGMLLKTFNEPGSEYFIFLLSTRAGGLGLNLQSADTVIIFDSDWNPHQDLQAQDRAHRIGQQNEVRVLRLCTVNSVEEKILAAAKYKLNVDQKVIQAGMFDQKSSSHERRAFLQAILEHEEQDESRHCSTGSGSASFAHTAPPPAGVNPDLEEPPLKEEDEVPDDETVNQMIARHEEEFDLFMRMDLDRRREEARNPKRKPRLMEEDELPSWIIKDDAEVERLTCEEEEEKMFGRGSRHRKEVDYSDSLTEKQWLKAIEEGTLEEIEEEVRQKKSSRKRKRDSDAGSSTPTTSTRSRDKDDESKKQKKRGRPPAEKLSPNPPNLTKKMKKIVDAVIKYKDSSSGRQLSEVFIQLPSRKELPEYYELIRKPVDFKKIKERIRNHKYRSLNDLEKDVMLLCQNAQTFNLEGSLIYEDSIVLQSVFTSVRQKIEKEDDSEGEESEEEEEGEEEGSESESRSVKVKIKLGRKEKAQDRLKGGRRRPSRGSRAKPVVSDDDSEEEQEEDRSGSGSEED

For orientation: Dmax means the largest share of the target that was removed. What is called DC50 is the concentration giving 50% degradation. `NCC#Cc1cnc(N2CCC(c3c[nH]c4nnc(-c5ccccc5O)cc34)CC2)nc1` [I-55, 2-(5-(1-(5-(3-aminoprop-1-yn-1-yl)pyrimidin-2-yl)piperidin-4-yl)-7H-pyrrolo[2,3-c]pyridazin-3-yl)phenol]: the values for the greatest degradation seen (Dmax) in experiment [1] and in experiment [2] were above 90% and below 50%, respectively. In addition, the 50% degradation concentration (DC50) in experiment [1] and in experiment [2] was above 1 µM each time.

For `Cc1ncsc1-c1ccc(CNC(=O)[C@@H]2C[C@@H](O)CN2C(=O)[C@@H](NC(=O)C2(F)CC2)C(C)(C)C)c(OCCCCCCCCN2CCC(c3c[nH]c4nnc(-c5ccccc5O)cc34)CC2)c1` [I-49], in experiment [1], the Dmax is 70 to 90% and the 50% degradation concentration (DC50) was above 1 µM. In experiment [2], the maximal degradation (Dmax) was below 50% and the DC50 was above 1 µM.

As to `CN(CCCc1cnc(N2CCC(c3c[nH]c4nnc(-c5ccccc5O)cc34)CC2)nc1)CCCc1ccc2c(c1)n(C)c(=O)n2C1CCC(=O)NC1=O` (centres unmarked) [I-2], in experiment [2], the Dmax is below 50% and the DC50 was above 1 µM.

For `Cc1ncsc1-c1ccc(CNC(=O)[C@@H]2C[C@@H](O)CN2C(=O)[C@@H](NC(=O)CN2CCC(c3cnc(N4CCC(c5c[nH]c6nnc(-c7ccccc7O)cc56)CC4)nc3)CC2)C(C)(C)C)cc1` [I-53], in experiment [1], the maximal degradation (Dmax) was 70 to 90% and the DC50 is below 0.1 µM. Besides, in experiment [2], the Dmax was in the range of 70 to 90% and the 50% degradation concentration (DC50) was in the range of 0.501 to 1 µM.

Consider `Cc1ncsc1-c1ccc(CNC(=O)[C@@H]2C[C@@H](O)CN2C(=O)[C@@H](NC(=O)C2(F)CC2)C(C)(C)C)c(OCCCCCCN2CCC(c3c[nH]c4nnc(-c5ccccc5O)cc34)CC2)c1` [I-48], for which, in experiment [1], the maximal degradation (Dmax) is below 50% and the half-maximal degradation concentration (DC50) fell in the range of 0.501 to 1 µM. Further, in experiment [2], the greatest degradation seen (Dmax) was below 50% and the DC50 is above 1 µM.

Consider `Cc1ncsc1-c1ccc(CNC(=O)[C@@H]2C[C@@H](O)CN2C(=O)[C@@H](NC(=O)[C@H]2CC[C@@H](c3cnc(N4CCC(c5c[nH]c6nnc(-c7ccccc7O)cc56)CC4)nc3)CC2)C(C)(C)C)cc1` [I-45, (2S,4R)-4-hydroxy-1-((S)-2-((1s,4R)-4-(2-(4-(3-(2-hydroxyphenyl)-7H-pyrrolo[2,3-c]pyridazin-5-yl)piperidin-1-yl)pyrimidin-5-yl)cyclohexanecarboxamido)-3,3-dimethylbutanoyl)-N-(4-(4-methylthiazol-5-yl)benzyl)pyrrolidine-2-carboxamide], for which the Dmax was above 90% in experiment [1] and 70 to 90% in experiment [2]. Also, the figures for the DC50 in experiment [1] and in experiment [2] were below 0.1 µM and 0.501 to 1 µM, respectively.

In the case of `Cc1ncsc1-c1ccc(CNC(=O)[C@@H]2C[C@@H](O)CN2C(=O)[C@@H](NC(=O)CCCCCN(C)Cc2cnc(N3CCC(c4c[nH]c5nnc(-c6ccccc6O)cc45)CC3)nc2)C(C)(C)C)cc1` [I-52, (2S,4R)-4-hydroxy-1-((S)-2-(6-(((2-(4-(3-(2-hydroxyphenyl)-7H-pyrrolo[2,3-c]pyridazin-5-yl)piperidin-1-yl)pyrimidin-5-yl)methyl)(methyl)amino)hexanamido)-3,3-dimethylbutanoyl)-N-(4-(4-methylthiazol-5-yl)benzyl)pyrrolidine-2-carboxamide], the Dmax in experiment [1] was 50 to 70%; in experiment [2], below 50%. Further, the DC50 in experiment [1] and in experiment [2] was above 1 µM each time.

As for `Cc1ncsc1-c1ccc(CNC(=O)[C@@H]2C[C@@H](O)CN2C(=O)[C@@H](NC(=O)CN(C)Cc2cnc(N3CCC(c4c[nH]c5nnc(-c6ccccc6O)cc45)CC3)nc2)C(C)(C)C)cc1` [I-50], the greatest degradation seen (Dmax) in experiment [1] and in experiment [2] was below 50% in each case. Also, the DC50 in experiment [1] and in experiment [2] was above 1 µM throughout.

For `CN(CC#Cc1cnc(N2CCC(c3c[nH]c4nnc(-c5ccccc5O)cc34)CC2)nc1)CCCc1ccc2c(c1)n(C)c(=O)n2C1CCC(=O)NC1=O` (centres unmarked) [I-3], in experiment [2], the Dmax was below 50% and the half-maximal degradation concentration (DC50) is above 1 µM.

Regarding `Cc1ncsc1-c1ccc(CNC(=O)[C@@H]2C[C@@H](O)CN2C(=O)[C@@H](NC(=O)C2(F)CC2)C(C)(C)C)c(OCCN2CCC(c3c[nH]c4nnc(-c5ccccc5O)cc34)CC2)c1` [I-47, (2S,4R)-1-((S)-2-(1-fluorocyclopropanecarboxamido)-3,3-dimethylbutanoyl)-4-hydroxy-N-(2-(2-(4-(3-(2-hydroxyphenyl)-7H-pyrrolo[2,3-c]pyridazin-5-yl)piperidin-1-yl)ethoxy)-4-(4-methylthiazol-5-yl)benzyl)pyrrolidine-2-carboxamide], the Dmax in experiment [1] is 70 to 90%; in experiment [2], below 50%. The DC50 in experiment [1] and in experiment [2] was above 1 µM in each case.

As for `Cc1ncsc1-c1ccc(CNC(=O)[C@@H]2C[C@@H](O)CN2C(=O)[C@@H](NC(=O)CN2CCC(c3cc(N4CCC(c5c[nH]c6nnc(-c7ccccc7O)cc56)CC4)ncn3)CC2)C(C)(C)C)cc1` [I-54, (2S,4R)-4-hydroxy-1-((S)-2-(2-(4-(6-(4-(3-(2-hydroxyphenyl)-7H-pyrrolo[2,3-c]pyridazin-5-yl)piperidin-1-yl)pyrimidin-4-yl)piperidin-1-yl)acetamido)-3,3-dimethylbutanoyl)-N-(4-(4-methylthiazol-5-yl)benzyl)pyrrolidine-2-carboxamide], in experiment [1], the Dmax was above 90% and the DC50 is above 1 µM. Further, in experiment [2], the maximal degradation (Dmax) is below 50% and the half-maximal degradation concentration (DC50) is above 1 µM.

Consider `Cc1ncsc1-c1ccc(CNC(=O)[C@@H]2C[C@@H](O)CN2C(=O)[C@@H](NC(=O)CCCN(C)Cc2cnc(N3CCC(c4c[nH]c5nnc(-c6ccccc6O)cc45)CC3)nc2)C(C)(C)C)cc1` [I-51], for which, in experiment [1], the greatest degradation seen (Dmax) was below 50% and the DC50 was above 1 µM. Besides, in experiment [2], the Dmax was below 50% and the DC50 was above 1 µM.
